The record followed here is patent US12145947B2, “Pyrimidine based modulators and uses thereof” (Quanta Therapeutics, Inc., priority 2022, dated 2024).

Experiment [1] concerns AGS cells (KRAS G12D), phospho-ERK. In words: pERK In Cell Western (ICW) assay (Method B), AGS cells. The settings on record: Homo sapiens, Table 4, pERK, 3 hours, read-out: ICW-AGS. Format: cell-based. As to the method: pERK ICW is a high throughput screening assay to evaluate the cellular potency of mutant KRAS small molecule inhibitors. KRAS mutant cell lines AGS and GP2D (KRAS^G12D) were purchased from ATCC and maintained respectively in RPMI and DMEM medium supplemented with 10% fetal bovine serum and Penicillin/Streptomycin.
Cells grown in exponential phase were trypsinized, resuspended in fresh media, and viable cells were counted using a cell counter with Trypan Blue (BioRad TC20). Cells were seeded into 384-well plate (Greiner 781091) at density of 5,000 cells/well for AGS and 10,000 cells/well for GP2D and allowed to grow overnight in a 37° C. CO2 incubator. The next day, compounds were dispensed into wells with a ½ log, 10-point serial dilution and top concentration of […] using Tecan D300e dispenser and incubated for 3 hours in a 37° C. CO2 incubator. Cells were then fixed with paraformaldehyde (Electron Microscopy Sciences, 15710, 4% final concentration) for 30 min, permeabilized with wash buffer (1×PBS+0.1% Triton X-100) for 30 min and blocked with Odyssey blocking buffer (Li—COR 927-70001) for 1 hour, all at room temperature (RT). Phospho-ERK antibody (CST 4370L) was diluted 1:500 in Odyssey blocking+0.2% Tween 20 and incubated with cells overnight at 4° C. The next day, plates were washed 5× with wash buffer, incubated with IRDye 800 CW, Goat anti-Rabbit secondary antibody (Li—COR 926-32211, 1:500) and DRAQ5 (CST 4084L, 1:5,000) diluted in Odyssey blocking+0.2% Tween 20 for 1 hour, washed 5×, and imaged on an Odyssey CLx imaging system.
For data analysis, signal intensities from 800 (phosphor-ERK) and 700 (DRAQ5) channels were extracted, and phospho-ERK signals were normalized to DRAQ5 signals for each well and percent of DMSO control values were computed. Data were then imported into Graphpad Prism to compute half-maximal inhibitory concentrations (IC50) using a 4-parameter variable slope model. Z-factor for each plate was computed from signals derived from wells treated with either DMSO or […] of Trametinib. AGS pERK ICW (Method B) IC50 (uM) values of selected compounds are depicted in Table 2 with compounds having a value 0.001 uM to 0.01 uM as ++++; >0.01 uM to 0.1 uM as +++; >0.1 uM to 1 uM as ++; 1 uM to 10 uM as + and >10 uM as NA.

Experiment [2] addresses T1, GST-tagged KRAS-G12D (2-169) (Homo sapiens, UniProt P01116, G12D).
T1 construct: GST-tagged KRAS-G12D (2-169, Reaction Biology, MSC-11-539); purchased Reaction Biology MSC-11-539 (KRAS G12D); MSC-11-502 (SOS1cat)
In words: Nucleotide exchange assay (NEA), SOS-mediated, HTRF, KRAS G12D. The experiment is classed as biochemical. The note with it: Table 4; IC50 extracted at 30 min. The procedure, abridged: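 GST-KRAS-G12D (2-169, 5 nM final) with Tb-anti-GST donor was preincubated with compound 1 h at RT (pH 7.3 HEPES buffer, MgCl2, DTT), then SOScat (564-1049, 20 nM) and GTP-DY-647P1 (150 nM) were added. HTRF was read at RT; % inhibition vs DMSO/no-SOS blank, 4-parameter IC50 taken at 30 min.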
Background: Time-resolved FRET reads energy transfer from a long-lived donor to a nearby acceptor.

T1 sequence (P01116 2-169 isoform P01116-2 G12D): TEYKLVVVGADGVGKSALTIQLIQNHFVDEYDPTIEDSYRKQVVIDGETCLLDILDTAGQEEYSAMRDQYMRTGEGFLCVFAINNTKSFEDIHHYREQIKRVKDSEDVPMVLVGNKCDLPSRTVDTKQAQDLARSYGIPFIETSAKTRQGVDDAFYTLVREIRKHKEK

Turning to `Cn1c(-c2nn3c(c2Cl)CN(c2nc(OC[C@@]45CCCN4C[C@H](F)C5)nc(N4CC5(CCc6sc(N)c(C#N)c65)C4)c2C#N)CCC3)nc2ccccc21` [Compound 30], the IC50 in experiment [1] is 100 to 1000 nM; in experiment [2] it was under 10 nM.

Consider `CN(C)C(=O)c1nn2c(c1Cl)CN(c1nc(OCC3(CN4CCOCC4)CC3)nc(N3CC4(CCc5sc(N)c(C#N)c54)C3)c1C#N)CCC2` [Compound 5, 5-[6-(2-amino-3-cyano-spiro[5,6-dihydrocyclopenta[b]thiophene-4,3′-azetidine]-1′-yl)-5-cyano-2-[[1-(morpholinomethyl)cyclopropyl]methoxy]pyrimidin-4-yl]-3-chloro-N,N-dimethyl-4,6,7,8-tetrahydropyrazolo[1,5-a][1,4]diazepine-2-carboxamide], for which the IC50 in experiment [1] was 10 to 100 nM; in experiment [2], under 10 nM.

In the case of `Cc1nc(-c2nn3c(c2Cl)CN(c2nc(OC[C@@]45CCCN4C[C@H](F)C5)nc(N4CC5(CCc6sc(N)c(C#N)c65)C4)c2C#N)CCC3)no1` [Compound 46, 2-amino-1′-[6-[3-chloro-2-(5-methyl-1,2,4-oxadiazol-3-yl)-4,6,7,8-tetrahydropyrazolo[1,5-a][1,4]diazepin-5-yl]-5-cyano-2-[[(2R,8S)-2-fluoro-1,2,3,5,6,7-hexahydropyrrolizin-8-yl]methoxy]pyrimidin-4-yl]spiro[5,6-dihydrocyclopenta[b]thiophene-4,3′-azetidine]-3-carbonitrile], the IC50 is 100 to 1000 nM in experiment [1] and under 10 nM in experiment [2].

For the molecule `CN(C)C(=O)c1nn2c(c1Cl)CN(c1nc(OC[C@@]34CCCN3C[C@H](F)C4)nc(N3CC4(CCc5sc(N)c(C#N)c54)C3)c1C#N)CC(F)(F)C2` [Compound 91, 5-[6-(2-amino-3-cyano-spiro[5,6-dihydrocyclopenta[b]thiophene-4,3′-azetidine]-1′-yl)-5-cyano-2-[[(2R,8S)-2-fluoro-1,2,3,5,6,7-hexahydropyrrolizin-8-yl]methoxy]pyrimidin-4-yl]-3-chloro-7,7-difluoro-N,N-dimethyl-6,8-dihydro-4H-pyrazolo[1,5-a][1,4]diazepine-2-carboxamide], the figures for the IC50 in experiment [1] and in experiment [2] were 10 to 100 nM and under 10 nM, respectively.

As to `CN(C)CC(F)(F)COc1nc(N2C[C@H]3CC[C@@H](C2)N3)c(C#N)c(N2CC3(CCc4sc(N)c(C#N)c43)C2)n1` [Compound 26, 2-amino-1′-[5-cyano-6-(3,8-diazabicyclo[3.2.1]octan-3-yl)-2-[3-(dimethylamino)-2,2-difluoro-propoxy]pyrimidin-4-yl]spiro[5,6-dihydrocyclopenta[b]thiophene-4,3′-azetidine]-3-carbonitrile], the IC50 in experiment [1] is 1000 to 10000 nM; in experiment [2], under 10 nM.

For the molecule `CN(C)C(=O)c1nn2c(c1Cl)CN(c1nc(OC[C@@]34CCCN3C[C@H](F)C4)nc(N3CC4(CCCCc5sc(N)c(C#N)c54)C3)c1C#N)CCC2` [Compound 10, 5-[6-(2-amino-3-cyano-spiro[5,6,7,8-tetrahydrocyclohepta[b]thiophene-4,3′-azetidine]-1′-yl)-5-cyano-2-[[(2R,8S)-2-fluoro-1,2,3,5,6,7-hexahydropyrrolizin-8-yl]methoxy]pyrimidin-4-yl]-3-chloro-N,N-dimethyl-4,6,7,8-tetrahydropyrazolo[1,5-a][1,4]diazepine-2-carboxamide], the IC50 in experiment [1] was 10 to 100 nM; in experiment [2] it was under 10 nM.

As for `N#Cc1c(N2C[C@H]3CC[C@@H](C2)N3)nc(OCC2(CN3CCOCC3)CC2)nc1N1CC2(CCc3sc(N)c(C#N)c32)C1` [Compound 4, 2-amino-1′-[5-cyano-2-[[1-(morpholinomethyl)cyclopropyl]methoxy]-6-[(1R,5S)-3,8-diazabicyclo[3.2.1]octan-3-yl]pyrimidin-4-yl]spiro[5,6-dihydrocyclopenta[b]thiophene-4,3′-azetidine]-3-carbonitrile], the IC50 in experiment [1] was 1 to 10 nM; in experiment [2], under 10 nM.

Regarding `Cn1c(-c2cc3n(n2)CCCN(c2nc(OC[C@@]45CCCN4C[C@H](F)C5)nc(N4CC5(CCc6sc(N)c(C#N)c65)C4)c2C#N)C3)nc2ccccc21` [Compound 29, 2-amino-1′-[5-cyano-6-[2-(1-methylbenzimidazol-2-yl)-4,6,7,8-tetrahydropyrazolo[1,5-a][1,4]diazepin-5-yl]-2-[[(2R,8S)-2-fluoro-1,2,3,5,6,7-hexahydropyrrolizin-8-yl]methoxy]pyrimidin-4-yl]spiro[5,6-dihydrocyclopenta[b]thiophene-4,3′-azetidine]-3-carbonitrile], the IC50 in experiment [1] lay within 1000 to 10000 nM; in experiment [2], 10 to 100 nM.

With `N#Cc1cc2n(n1)CCCN(c1nc(OC[C@@]34CCCN3C[C@H](F)C4)nc(N3CC4(CCc5sc(N)c(C#N)c54)C3)c1C#N)C2` [Compound 24, 2-amino-1′-[5-cyano-6-(2-cyano-4,6,7,8-tetrahydropyrazolo[1,5-a][1,4]diazepin-5-yl)-2-[[(2R,8S)-2-fluoro-1,2,3,5,6,7-hexahydropyrrolizin-8-yl]methoxy]pyrimidin-4-yl]spiro[5,6-dihydrocyclopenta[b]thiophene-4,3′-azetidine]-3-carbonitrile], the IC50 in experiment [1] was in the range of 100 to 1000 nM; in experiment [2] it was 10 to 100 nM.

Consider `CC1CC2(CN(c3nc(OC[C@@]45CCCN4C[C@H](F)C5)nc(N4CCCn5nc(C(=O)N(C)C)c(Cl)c5C4)c3C#N)C2)c2c1sc(N)c2C#N` (stereo partly drawn) [Compound 14, 5-[6-(2-amino-3-cyano-6-methyl-spiro[5,6-dihydrocyclopenta[b]thiophene-4,3′-azetidine]-1′-yl)-5-cyano-2-[[(2R,8S)-2-fluoro-1,2,3,5,6,7-hexahydropyrrolizin-8-yl]methoxy]pyrimidin-4-yl]-3-chloro-N,N-dimethyl-4,6,7,8-tetrahydropyrazolo[1,5-a][1,4]diazepine-2-carboxamide], for which the IC50 was 10 to 100 nM in experiment [1] and under 10 nM in experiment [2].

As for `CN(C)C1(COc2nc(N3C[C@H]4CC[C@@H](C3)N4)c(C#N)c(N3CC4(CCc5sc(N)c(C#N)c54)C3)n2)CC1` [Compound 47, 2-amino-1′-[5-cyano-6-[(1R,5S)-3,8-diazabicyclo[3.2.1]octan-3-yl]-2-[[1-(dimethylamino)cyclopropyl]methoxy]pyrimidin-4-yl]spiro[5,6-dihydrocyclopenta[b]thiophene-4,3′-azetidine]-3-carbonitrile], the IC50 in experiment [1] was 100 to 1000 nM; in experiment [2], under 10 nM.

As to `N#Cc1c(N2CCCC3(C2)NC(=O)NC3=O)nc(OC[C@@]23CCCN2C[C@H](F)C3)nc1N1CC2(CCc3sc(N)c(C#N)c32)C1` (stereo partly drawn) [Compound 12, 2-amino-1′-[5-cyano-6-(2,4-dioxo-1,3,9-triazaspiro[4.5]decan-9-yl)-2-[[(2R,8S)-2-fluoro-1,2,3,5,6,7-hexahydropyrrolizin-8-yl]methoxy]pyrimidin-4-yl]spiro[5,6-dihydrocyclopenta[b]thiophene-4,3′-azetidine]-3-carbonitrile], the IC50 in experiment [1] is 1000 to 10000 nM; in experiment [2], under 10 nM.

On to `N#Cc1c(N2C[C@H]3CC[C@@H](C2)N3)nc(OCC2(CN3C[C@@H]4C[C@H]3CO4)CC2)nc1N1CC2(CCc3sc(N)c(C#N)c32)C1` [Compound 89, 2-amino-1′-[5-cyano-6-[(1R,5S)-3,8-diazabicyclo[3.2.1]octan-3-yl]-2-[[1-[[(1S,4S)-2-oxa-5-azabicyclo[2.2.1]heptan-5-yl]methyl]cyclopropyl]methoxy]pyrimidin-4-yl]spiro[5,6-dihydrocyclopenta[b]thiophene-4,3′-azetidine]-3-carbonitrile], for which the IC50 in experiment [1] was 10 to 100 nM; in experiment [2], under 10 nM.

As to `CC1CC2(CN(c3nc(OCC4(CN5CCOCC5)CC4)nc(N4C[C@H]5CC[C@@H](C4)N5)c3C#N)C2)c2c1sc(N)c2C#N` (stereo partly drawn) [Compound 45, 2-amino-1-[5-cyano-2-[[1-(morpholinomethyl)cyclopropyl]methoxy]-6-[(1R,5S)-3,8-diazabicyclo[3.2.1]octan-3-yl]pyrimidin-4-yl]-6-methyl-spiro[5,6-dihydrocyclopenta[b]thiophene-4,3′-azetidine]-3-carbonitrile], the IC50 is 10 to 100 nM in experiment [1] and under 10 nM in experiment [2].
